Laboratory results taken from ChEMBL document CHEMBL1150019, “Synthesis and antitumor activity of novel cyclopropapyrroloindole (CPI) derivatives bearing bis(methoxycarbonyl) groups” (Bioorg Med Chem Lett, 1997).
Values after ≈ are worked out from the molar mass of the structure shown.

Columns and labels:
Mus musculus [1] = assay: In vivo antitumor activity against P388 murine leukemia as percentage increase in life span as compared with the untreated at a dose of 0.5 mg/kg administered intraperitoneally; assay type: functional; conditions: P388, ip, route intraperitoneal
P388 = assay: Tested in vitro for cytotoxicity as concentration required to inhibit 50 percent growth of P388 murine leukemia cells; assay type: functional, cell-based; conditions: Mus musculus
Mus musculus [2] = assay: In vivo antitumor activity against P388 murine leukemia as percentage increase in life span as compared with the untreated at a dose of 0.125 mg/kg administered intraperitoneally; assay type: functional; conditions: P388, ip, route intraperitoneal
Mus musculus [3] = assay: In vivo antitumor activity against P388 murine leukemia as percentage increase in life span as compared with the untreated at a dose of 1 mg/kg administered intraperitoneally; assay type: functional; conditions: P388, ip, route intraperitoneal
Mus musculus [4] = assay: In vivo antitumor activity against P388 murine leukemia as percentage increase in life span as compared with the untreated at a dose of 0.063 mg/kg administered intraperitoneally; assay type: functional; conditions: P388, ip, route intraperitoneal
Mus musculus [5] = assay: In vivo antitumor activity against P388 murine leukemia as percentage increase in life span as compared with the untreated at a dose of 0.25 mg/kg administered intraperitoneally; assay type: functional; conditions: P388, ip, route intraperitoneal
Mus musculus [6] = assay: In vivo antitumor activity against P388 murine leukemia as percentage increase in life span as compared with the untreated at a dose of 0.625 mg/kg administered intraperitoneally; assay type: functional; conditions: P388, ip, route intraperitoneal

SMILES	IC50 (P388)	ILS at 0.125 mg/kg (Mus musculus [2])	further results
COC(=O)c1[nH]c2c(O)cc3c(c2c1C(=O)OC)C(CCl)CN3C(=O)c1cc2cc(NC(=O)c3cc4ccccc4[nH]3)ccc2[nH]1 (stereo not drawn)	0.24 ng/mL (≈ 0.375 nM)		ILS at 0.5 mg/kg (Mus musculus [1]): 90%
COC(=O)c1[nH]c2c(c1C(=O)OC)C13CC1CN(C(=O)c1cc4cc(OC)ccc4[nH]1)C3=CC2=O (stereo not drawn)	0.63 ng/mL (≈ 1.33 nM)	49%	
COC(=O)c1[nH]c2c(O)cc3c(c2c1C(=O)OC)C(CCl)CN3C(=O)c1cc2cc(OC)c(OC)c(OC)c2[nH]1 (stereo not drawn)	0.31 ng/mL (≈ 0.542 nM)		ILS at 1 mg/kg (Mus musculus [3]): 73%
COC(=O)c1[nH]c2c(O)cc3c(c2c1C(=O)OC)C(CCl)CN3C(=O)c1cc2cc(OC)ccc2[nH]1 (stereo not drawn)	0.27 ng/mL (≈ 0.527 nM)		ILS at 1 mg/kg (Mus musculus [3]): 43%
COC(=O)c1[nH]c2c(c1C(=O)OC)C13CC1CN(C(=O)c1cc4cc(OC)c(OC)c(OC)c4[nH]1)C3=CC2=O (stereo not drawn)	0.74 ng/mL (≈ 1.38 nM)		ILS at 0.063 mg/kg (Mus musculus [4]): 43%
COC(=O)c1[nH]c2c(c1C(=O)OC)C13CC1CN(C(=O)c1cc4cc(NC(=O)c5cc6ccccc6o5)ccc4[nH]1)C3=CC2=O (stereo not drawn)		79%	
COC(=O)c1[nH]c2c(c1C(=O)OC)C13CC1CN(C(=O)c1cc4cc(NC(=O)c5cc6ccccc6[nH]5)ccc4[nH]1)C3=CC2=O (stereo not drawn)		102%	
COC(=O)c1c(C)[nH]c2c(O)cc3c(c12)[C@H](CCl)CN3C(=O)c1cc2cc(OC)c(OC)c(OC)c2[nH]1	0.22 ng/mL (≈ 0.417 nM)		ILS at 0.25 mg/kg (Mus musculus [5]): 74%
COC(=O)c1[nH]c2c(O)cc3c(c2c1C(=O)OC)C(CCl)CN3C(=O)c1cc2cc(NC(=O)c3cc4ccccc4o3)ccc2[nH]1 (stereo not drawn)	0.32 ng/mL (≈ 0.499 nM)		ILS at 0.625 mg/kg (Mus musculus [6]): 115%
COC(=O)c1c(C)[nH]c2c1[C@@]13CC1CN(C(=O)c1cc4cc(OC)c(OC)c(OC)c4[nH]1)C3=CC2=O (mixture of isomers)	0.34 ng/mL	80%	
